42 compounds from patent US9115086B2, “Therapeutic compositions and related methods of use” (AGIOS PHARMACEUTICALS, INC., priority 2009, dated 2015) can be followed below.

pEC50: −log10 of the molar value.

T1 sequence (P14618 whole entry): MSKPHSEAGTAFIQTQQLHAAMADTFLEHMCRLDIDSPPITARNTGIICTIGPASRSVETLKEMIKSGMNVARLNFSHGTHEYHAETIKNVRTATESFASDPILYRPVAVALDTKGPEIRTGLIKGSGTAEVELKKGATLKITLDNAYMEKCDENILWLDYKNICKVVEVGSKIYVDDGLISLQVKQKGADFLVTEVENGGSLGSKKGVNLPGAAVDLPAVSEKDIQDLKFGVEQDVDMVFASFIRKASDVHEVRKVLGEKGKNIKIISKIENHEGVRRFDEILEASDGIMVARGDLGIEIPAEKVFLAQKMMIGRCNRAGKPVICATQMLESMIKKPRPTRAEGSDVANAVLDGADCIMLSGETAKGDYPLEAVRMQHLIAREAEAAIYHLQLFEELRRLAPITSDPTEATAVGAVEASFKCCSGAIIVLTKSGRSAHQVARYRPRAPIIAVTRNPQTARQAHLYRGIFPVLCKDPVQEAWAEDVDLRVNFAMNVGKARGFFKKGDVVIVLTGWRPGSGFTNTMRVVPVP

The assay addresses T1, PKM2 (Homo sapiens, UniProt P14618).
T1 construct: PKM2 stock enzyme solution was diluted in Reaction Buffer
As to the kind of experiment: PKM2 Assay (activation, LDH-coupled NADH absorbance at 340 nm). Particulars: activation of PKM2. The class given is biochemical. The protocol: • PKM2 stock enzyme solution was diluted in Reaction Buffer • 2 μL of compound was added into each well first, and then 180 μL of the Reaction Mix was added. • Reaction mixture with compound (without ADP) were incubated for 30 minutes at 4° C. • Plates were re-equilibrated to room temperature prior to adding 20 μL ADP to initiate the reaction. • Reaction progress was measured as changes in absorbance at 340 nm wavelength at room temperature (25° C.) Reaction Mix: PKM2 (50 ng/well), ADP (0.7 mM), PEP (0.15 mM), NADH (180 μM), LDH (2 units) in Reaction Buffer Reaction Buffer: 100 mM KCl, 50 mM Tris pH 7.5, 5 mM MgCl2, 1 mM DTT, 0.03% BSA.
`O=C(COc1ccc(-n2cnnn2)cc1)N1CCN(S(=O)(=O)c2ccc3ccccc3c2)CC1`: the pEC50 is > 5.00.

Turning to `O=C(COc1ccccc1)N1CCN(S(=O)(=O)c2ccc3ccccc3c2)CC1`, the pEC50 was > 5.00.

As for `Cc1ccc(OCC(=O)N2CCN(S(=O)(=O)c3ccc4ccccc4c3)CC2)cc1`, the pEC50 is > 5.00.

As for `COC(=O)c1ccc(OCC(=O)N2CCN(S(=O)(=O)c3ccc4ccccc4c3)CC2)cc1`, the pEC50 was > 5.00.

`CC(C)(C)OCC(=O)N1CCN(S(=O)(=O)c2ccc3sc(=O)sc3c2)CC1` gave a pEC50 of 4.00 to 5.00.

`O=C(C1CCCCC1)N1CCN(S(=O)(=O)c2ccc3ccccc3c2)CC1`: the pEC50 is > 5.00.

For `O=C(C1CCCCC1)N1CCN(S(=O)(=O)c2cccc(C(F)(F)F)c2)CC1`, the pEC50 is > 5.00.

Turning to `O=C(COc1ccc(-n2cnnn2)cc1)N1CCN(S(=O)(=O)c2cccn2-c2ncc(C(F)(F)F)cc2Cl)CC1`, the pEC50 is 4.00 to 5.00.

As for `O=C(OCc1ccccc1)N1CCN(S(=O)(=O)c2ccc3ccccc3c2)CC1`, the pEC50 was > 5.00.

`O=C(Cc1ccc(C(F)(F)F)cc1)N1CCN(S(=O)(=O)c2cc(C(F)(F)F)cc(C(F)(F)F)c2)CC1`: the pEC50 is < 4.00.

Compound `O=C(Cc1ccc(C(F)(F)F)cc1)N1CCN(S(=O)(=O)c2cc(Cl)cc(Cl)c2)CC1` showed a pEC50 of 4.00 to 5.00.

As to `O=C(CCc1ccccc1)N1CCN(S(=O)(=O)c2ccc3ccccc3c2)CC1`, the negative logarithm of the EC50 (pEC50) was > 5.00.

Turning to `O=C(OCc1ccccc1)N1CCN(S(=O)(=O)c2ccccc2)CC1`, the pEC50 is > 5.00.

For `O=C(CCc1ccc(C(F)(F)F)cc1)N1CCN(S(=O)(=O)c2ccc3ccccc3c2)CC1`, the pEC50 was > 5.00.

As for `O=C(COc1ccccc1)N1CCN(S(=O)(=O)c2ccccc2)CC1`, the pEC50 was > 5.00.

For the compound `O=C(COc1ccc(-n2cnnn2)cc1)N1CCN(S(=O)(=O)c2c(F)cccc2F)CC1`, the pEC50 was > 5.00.

For `COc1ccc(Cl)cc1S(=O)(=O)N1CCN(C(=O)COc2ccc(-n3cnnn3)cc2)CC1`, the pEC50 is 4.00 to 5.00.

Take `O=C(COc1ccc(-n2cnnn2)cc1)N1CCN(S(=O)(=O)c2ccccc2)CC1`: the pEC50 was > 5.00.

With `O=C(COc1ccc(-n2cnnn2)cc1)N1CCN(S(=O)(=O)c2ccc(F)cc2)CC1`, the pEC50 was > 5.00.

In the case of `O=C(COc1ccc(-n2cnnn2)cc1)N1CCN(S(=O)(=O)c2cccc3ccccc23)CC1`, the pEC50 was > 5.00.

As to `Cc1ccc(SCC(=O)N2CCN(S(=O)(=O)c3ccc4ccccc4c3)CC2)cc1`, the pEC50 was > 5.00.

Consider `O=C(CSc1ccc(Cl)cc1Cl)N1CCN(S(=O)(=O)c2ccc3ccccc3c2)CC1`, for which the pEC50 was > 5.00.

On to `O=C(CSc1ccc(F)cc1)N1CCN(S(=O)(=O)c2ccc3ccccc3c2)CC1`, for which the pEC50 is > 5.00.

As for `O=C(COc1ccc(-n2cnnn2)cc1)N1CCN(S(=O)(=O)c2cccc3cccnc23)CC1`, the pEC50 is 4.00 to 5.00.

With `O=C(COCc1ccccc1)N1CCN(S(=O)(=O)c2ccc3ccccc3c2)CC1`, the pEC50 is > 5.00.

For `O=C(C1CC1c1ccc(C(F)(F)F)cc1)N1CCN(S(=O)(=O)c2ccc3ccccc3c2)CC1` (stereo not drawn), the pEC50 was > 5.00.

On to `O=C(C1CC1c1ccc(C(F)(F)F)cc1)N1CCN(S(=O)(=O)c2cc(C3CC3)cc(C(F)(F)F)c2)CC1` (stereo not drawn), for which the pEC50 is > 5.00.

In the case of `O=C(C1CC1c1ccc(C(F)(F)F)cc1)N1CCN(S(=O)(=O)c2ccc3c(c2)OCCO3)CC1` (stereo not drawn), the pEC50 is > 5.00.

For `O=C(Cc1ccc(C(F)(F)F)cc1)N1CCN(S(=O)(=O)c2ccc3ccccc3c2)CC1`, the pEC50 was > 5.00.

Regarding `O=C(CC1CC1)N1CCN(S(=O)(=O)c2ccc3ccccc3c2)CC1`, the pEC50 is > 5.00.

With `O=C(COc1cccnc1)N1CCN(S(=O)(=O)c2ccc3ccccc3c2)CC1`, the pEC50 was > 5.00.

On to `O=C(CNc1ccccc1)N1CCN(S(=O)(=O)c2ccc3ccccc3c2)CC1`, for which the pEC50 was > 5.00.

On to `O=C(COc1ccccc1)N1CCN(S(=O)(=O)c2ccc(F)cc2)CC1`, for which the pEC50 was > 5.00.

As for `O=C(OCc1cccnc1)N1CCN(S(=O)(=O)c2ccc3ccccc3c2)CC1`, the pEC50 was > 5.00.

As for `Cc1cc(C)cc(OCC(=O)N2CCN(S(=O)(=O)c3ccc4ccccc4c3)CC2)c1`, the negative logarithm of the EC50 (pEC50) is > 5.00.

Turning to `COc1ccc(OCC(=O)N2CCN(S(=O)(=O)c3ccc4ccccc4c3)CC2)cc1`, the pEC50 is > 5.00.

Take `O=C(COc1ccccc1)N1CCN(S(=O)(=O)c2cccc3ccccc23)CC1`: the pEC50 was > 5.00.

`CN1C(=O)COc2ccc(S(=O)(=O)N3CCN(C(=O)COc4ccccc4)CC3)cc21`: the pEC50 is 4.00 to 5.00.

Compound `CN1C(=O)C(=O)c2cc(S(=O)(=O)N3CCN(C(=O)COc4ccccc4)CC3)ccc21` showed a pEC50 of 4.00 to 5.00.

As to `O=C(COc1ccc(C(F)(F)F)cc1)N1CCN(S(=O)(=O)c2ccc3c(c2)OCCO3)CC1`, the pEC50 is < 4.00.

Regarding `O=C(COc1ccccc1)N1CCN(S(=O)(=O)c2cccc3cccnc23)CC1`, the pEC50 is > 5.00.

Regarding `O=C(Cc1ccc(C(F)(F)F)cc1)N1CCN(S(=O)(=O)c2cccc3ccccc23)CC1`, the pEC50 is > 5.00.
